Measurements reported in patent US8987193B2, “Nisin derivatives and the use thereof” (University College Cork—National University of Ireland, Cork, priority 2008, dated 2015).
“Also recorded” adds a separate entry of the source. Ends that are not written are not given here.

Tests used:
Staph. aureus DPC5245 = assay: Deferred antagonism assay; type: cell-based; conditions: producing strain; diameter of zone minus 5 mm; average of duplicates; St. aureus DPC5245
Summary of the method: (§1)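 Producer strains replicated on GM17 agar, grown overnight, then overlaid with soft agar (0.75% w/v) seeded with indicator strain. Zone size = clearing diameter minus 5 mm growth diameter, relative to NZ9800 pCI372nisA control; mean of duplicates.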

[1] = test system: Strep. agalactiae ATCC13813; assay: Deferred antagonism assay; type: cell-based; conditions: producing strain, diameter of zone minus 5 mm, average of duplicates
[2] = test system: Staph. aureus ST528 (MRSA); assay: Deferred antagonism assay; type: cell-based; conditions: producing strain, diameter of zone minus diameter of bacterial growth (5 mm), average of duplicates
Summary of the method: as §1

L. plantarum CBC6 = assay: Deferred antagonism assay; type: cell-based, Lactobacillus plantarum; set-up: key: + = Enhanced bioactivity relative to control; − = Bioactivity equal to or less than control; NA = no activity evident; conditions: producing strain
Summary of the method: (§2)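 Well-diffusion testing of purified nisin variants in 0.005% acetic acid, serially diluted, 37° C overnight; AU/ml = reciprocal of last dilution with definite zone × 20. Deferred antagonism: overnight GM17 colonies overlaid with seeded soft agar (0.75%); zone = clearing diameter minus 5 mm.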

L. monocytogenes CBC1 = assay: Deferred antagonism assay; type: cell-based, Listeria monocytogenes; set-up: key: + = Enhanced bioactivity relative to control; − = Bioactivity equal to or less than control; NA = no activity evident; conditions: producing strain; L. mono CBC1
Summary of the method: as §2

L. monocytogenes CBC2 = assay: Deferred antagonism assay; type: cell-based, Listeria monocytogenes; set-up: key: + = Enhanced bioactivity relative to control; − = Bioactivity equal to or less than control; NA = no activity evident; conditions: producing strain; L. mono CBC2
Summary of the method: as §2

L. monocytogenes CBC3 = assay: Deferred antagonism assay; type: cell-based, Listeria monocytogenes; set-up: key: + = Enhanced bioactivity relative to control; − = Bioactivity equal to or less than control; NA = no activity evident; conditions: producing strain; L. mono CBC3
Summary of the method: as §2

indicator strains = assay: Deferred antagonism assays, various indicator strains (summary); type: cell-based; conditions: for bioactivity of the producing strain, in words: in general / against the strains tested; for Strain(s) against which the derivative (producing strain) displays enhanced bioactivity: relative to nisin A-producing control, value = strains listed
Summary of the method: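 Producer strains were replicated on GM17 or GM17 x-gal agar, grown overnight, then overlaid with GM17, BHI, TS or MH soft agar (0.75% w/v) seeded with the indicator strain. Zone size was taken as the clearing diameter minus the diameter of bacterial growth (5 mm).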

C. sporogenes CBC5 = assay: Deferred antagonism assay; type: cell-based, Clostridium sporogenes; set-up: key: + = Enhanced bioactivity relative to control; − = Bioactivity equal to or less than control; NA = no activity evident; conditions: producing strain
S. aureus CBC4 = assay: Deferred antagonism assay; type: cell-based; set-up: key: + = Enhanced bioactivity relative to control; − = Bioactivity equal to or less than control; NA = no activity evident; conditions: producing strain
Summary of the method: as §2

L. lactis CBC8 = assay: Deferred antagonism assay; type: cell-based; set-up: key: + = Enhanced bioactivity relative to control; − = Bioactivity equal to or less than control; NA = no activity evident; conditions: producing strain
Summary of the method: as §2

L. lactis CBC7 = assay: Deferred antagonism assay; type: cell-based; set-up: key: + = Enhanced bioactivity relative to control; − = Bioactivity equal to or less than control; NA = no activity evident; conditions: producing strain
Summary of the method: as §2

Row | Substance | zone size relative to that of the NZ9800 pCI372nisA control (Staph. aureus DPC5245) | zone size relative to that of the NZ9800 pCI372nisA control [1] | zone size relative to that of the NZ9800 pCI372nisA control [2] | Bioactivity relative to control (L. plantarum CBC6) | Bioactivity relative to control (L. monocytogenes CBC1) | Bioactivity relative to control (L. monocytogenes CBC2) | Bioactivity relative to control (L. monocytogenes CBC3) | bioactivity of the producing strain, in words (indicator strains) | Bioactivity relative to control (C. sporogenes CBC5) | Bioactivity relative to control (S. aureus CBC4) | Bioactivity relative to control (L. lactis CBC8) | Bioactivity relative to control (L. lactis CBC7) | relative bioactivity against the indicators of Table 6 (indicator strains; Staph. aureus ST528, DPC5245 and Strep. agalactiae ATCC 13813 taken together) | Strain(s) against which the derivative (producing strain) displays enhanced bioactivity (indicator strains)
1 | N20V: nisin A derivative, hinge substitution N20V (ITSISLCTPGCKTGALMGCVMKTATCHCSIHVSK; cysteine pairing not given here; also: lantibiotic nisin-A; UniProt P13068 24-57, looked up, variant N20V) | 77% | 63% | 68% | − | − | − | − | reduced bioactivity levels | − | − | − | − |  | 
2 | NisinA K22G (ITSISLCTPGCKTGALMGCNMGTATCHCSIHVSK; cysteine pairing not given here; also: lantibiotic nisin-A; UniProt P13068 24-57, looked up, variant K22G) [nisin A derivative, hinge substitution K22G] | 112% | 126% | 118.5% | − | − | − | − |  | − | − | + | + | approximately 120% | L. lactis CBC7 and CBC8; also recorded: DPC5425, Strep. agalactiae ATCC 13813
3 | NisinA K22L (ITSISLCTPGCKTGALMGCNMLTATCHCSIHVSK; not fully specified; cysteine pairing not given here; also: lantibiotic nisin-A; UniProt P13068 24-57, looked up, variant K22L) [nisin A derivative, hinge substitution K22L] | 89% | 108% | 93.5% | − | − | − | − | retention of relatively high levels of bioactivity | − | − | + | − |  | L. lactis CBC8
4 | NisinA K22M (ITSISLCTPGCKTGALMGCNMMTATCHCSIHVSK; cysteine pairing not given here; also: lantibiotic nisin-A; UniProt P13068 24-57, looked up, variant K22M) [nisin A derivative, hinge substitution K22M] | 79.5% | 104% | 77% | − | − | − | − | retention of relatively high levels of bioactivity | − | − | + | − |  | L. lactis CBC8
5 | NisinA K22Q (ITSISLCTPGCKTGALMGCNMQTATCHCSIHVSK; not fully specified; also: lantibiotic nisin: dehydrated residues and thioether rings not placed; UniProt P13068 24-57, looked up, variant K22Q) [nisin A derivative, hinge substitution K22Q] | 77% | 82% | 82% | − | − | − | − | slightly diminished bioactivity | − | − | + | − |  | L. lactis CBC8
6 | NisinA K22V | 113% | 126% | 107% | − | − | + | − |  | − | − | + | − |  | L. monocytogenes CBC2 and L. lactis CBC8
7 | NisinA M21A (ITSISLCTPGCKTGALMGCNAKTATCHCSIHVSK; not fully specified; also: lantibiotic nisin: dehydrated residues and thioether rings not placed; UniProt P13068 24-57, looked up, variant M21A) [nisin A derivative, hinge substitution M21A] | 135% | 105% | 132.5% | − | + | − | − |  | − | − | + | + |  | L. monocytogenes CBC1 and L. lactis CBCT and CBC8; also recorded: L. monocytogenes CBC1 , and L. lactis CBC7 and CBC8; also recorded: L. monocytogenes CBC1, L. lactis CBC7, CBC8, S. aureus
8 | NisinA M21K (ITSISLCTPGCKTGALMGCNKKTATCHCSIHVSK; not fully specified; also: lantibiotic nisin: dehydrated residues and thioether rings not placed; UniProt P13068 24-57, looked up, variant M21K) [nisin A derivative, hinge substitution M21K] | 104% | 91% | 89% | − | − | − | − | close to wild-type bioactivities | + | + | − | − |  | Staph. aureus CBC4 and C. sporogenes CBC5; also recorded: S. aureus CBC 4 and C. sporogenes CBC5; also recorded: S. aureus CBC4, C. sporogenes CBC5
9 | NisinA M21N | 90% | 98% | 95% | − | − | − | − | approximately wild type bioactivity | − | − | + | − |  | L. lactis CBC8
